Data taken from ChEMBL document CHEMBL4270557, “Discovery of potent anti-convulsant carbonic anhydrase inhibitors: Design, synthesis, in vitro and in vivo appraisal” (Eur J Med Chem, 2018).

Tests used:
Carbonic anhydrase 1 = Carbonic anhydrase 1 (Homo sapiens, UniProt P00915); experiment: Inhibition of human recombinant carbonic anhydrase 1 assessed as CO2 hydration preincubated for 15 mins prior to testing measured for 10 to 100 secs by phenol red dye-based stopped-flow assay
Carbonic anhydrase 2 = Carbonic anhydrase 2 (Homo sapiens, UniProt P00918); experiment: Inhibition of human recombinant carbonic anhydrase 2 assessed as CO2 hydration preincubated for 15 mins prior to testing measured for 10 to 100 secs by phenol red dye-based stopped-flow assay
Carbonic anhydrase 7 = Carbonic anhydrase 7 (Homo sapiens, UniProt P43166); experiment: Inhibition of human recombinant carbonic anhydrase 7 assessed as CO2 hydration preincubated for 15 mins prior to testing measured for 10 to 100 secs by phenol red dye-based stopped-flow assay
Chain of Carbonic anhydrase 7 (P43166 whole entry): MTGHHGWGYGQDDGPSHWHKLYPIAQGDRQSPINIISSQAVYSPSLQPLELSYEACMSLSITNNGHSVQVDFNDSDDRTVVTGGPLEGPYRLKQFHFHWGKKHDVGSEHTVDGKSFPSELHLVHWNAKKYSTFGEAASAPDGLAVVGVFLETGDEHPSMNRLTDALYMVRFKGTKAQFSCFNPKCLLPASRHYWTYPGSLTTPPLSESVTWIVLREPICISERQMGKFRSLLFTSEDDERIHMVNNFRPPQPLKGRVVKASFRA

Carbonic anhydrase 9 = Carbonic anhydrase 9 (Homo sapiens, UniProt Q16790); experiment: Inhibition of human recombinant carbonic anhydrase 9 assessed as CO2 hydration preincubated for 15 mins prior to testing measured for 10 to 100 secs by phenol red dye-based stopped-flow assay
Mus musculus [1] = experiment: Anticonvulsant activity in Swiss albino mouse assessed as protection against maximal electroshock-induced seizures at 30 mg/kg, ip administered 0.5 hrs prior to 50 mA current induction relative to control; format: functional
Rattus norvegicus [2] = experiment: Anticonvulsant activity in Wistar rat assessed as protection against maximal electroshock-induced seizures at 30 mg/kg, po administered 0.5 hrs prior to 150 mA current induction relative to control; format: functional
Mus musculus [3] = experiment: Anticonvulsant activity in Swiss albino mouse assessed as protection against subcutaneous PTZ-induced seizures at 30 mg/kg, ip administered 3 hrs prior to PTZ-induction relative to control; format: functional
Rattus norvegicus [4] = experiment: Anticonvulsant activity in Wistar rat assessed as protection against maximal electroshock-induced seizures at 30 mg/kg, po administered 0.25 hrs prior to 150 mA current induction relative to control; format: functional
Rattus norvegicus [5] = experiment: Anticonvulsant activity in Wistar rat assessed as protection against maximal electroshock-induced seizures at 30 mg/kg, po administered 1 hr prior to 150 mA current induction relative to control; format: functional
Rattus norvegicus [6] = experiment: Anticonvulsant activity in Wistar rat assessed as protection against maximal electroshock-induced seizures at 30 mg/kg, po administered 2 hrs prior to 150 mA current induction relative to control; format: functional
Rattus norvegicus [7] = experiment: Anticonvulsant activity in Wistar rat assessed as protection against maximal electroshock-induced seizures at 30 mg/kg, po administered 4 hrs prior to 150 mA current induction relative to control; format: functional
Mus musculus [8] = experiment: Anticonvulsant activity in Swiss albino mouse assessed as protection against maximal electroshock-induced seizures at 30 mg/kg, ip administered 1 hr prior to 50 mA current induction relative to control; format: functional
Mus musculus [9] = experiment: Anticonvulsant activity in Swiss albino mouse assessed as protection against maximal electroshock-induced seizures at 30 mg/kg, ip administered 2 hrs prior to 50 mA current induction relative to control; format: functional
Mus musculus [10] = experiment: Anticonvulsant activity in Swiss albino mouse assessed as protection against maximal electroshock-induced seizures at 30 mg/kg, ip administered 4 hrs prior to 50 mA current induction relative to control; format: functional
Mus musculus [11] = experiment: Anticonvulsant activity in Swiss albino mouse assessed as protection against maximal electroshock-induced seizures at 30 mg/kg, ip administered 6 hrs prior to 50 mA current induction relative to control; format: functional
Mus musculus [12] = experiment: Neurotoxicity in Swiss albino mouse at 30 mg/kg, ip after 30 to 120 mins by rotarod test; format: toxicity, organism-based; conditions: in vivo
Rattus norvegicus [13] = experiment: Sub-acute toxicity in Wistar rat assessed as lymphocytes level at 100 mg/kg, po administered daily for 14 days (reference value: 72.3 +/- 6.7%); format: organism-based; conditions: in vivo, 336 h
Rattus norvegicus [14] = experiment: Sub-acute toxicity in Wistar rat assessed as monocytes level at 100 mg/kg, po administered daily for 14 days (reference value: 2.6 +/- 1.5%); format: organism-based; conditions: in vivo, 336 h
Rattus norvegicus [15] = experiment: Sub-acute toxicity in Wistar rat assessed as basophils level at 100 mg/kg, po administered daily for 14 days (reference value: 0.16 +/- 0.4%); format: organism-based; conditions: in vivo, 336 h
Rattus norvegicus [16] = experiment: Sub-acute toxicity in Wistar rat assessed as SGOT level at 100 mg/kg, po administered daily for 14 days (reference value: 69.9 +/- 7.7 U/L); format: organism-based; conditions: in vivo, 336 h
Rattus norvegicus [17] = experiment: Sub-acute toxicity in Wistar rat assessed as SGPT level at 100 mg/kg, po administered daily for 14 days (reference value: 58.8 +/- 18.8 U/L); format: organism-based; conditions: in vivo, 336 h
Rattus norvegicus [18] = experiment: Sub-acute toxicity in Wistar rat assessed as alkaline phosphatase level at 100 mg/kg, po administered daily for 14 days (reference value: 113.2 +/- 15.1 U/L); format: organism-based; conditions: in vivo, 336 h
Rattus norvegicus [19] = experiment: Sub-acute toxicity in Wistar rat assessed as total protein level at 100 mg/kg, po administered daily for 14 days (reference value: […]); format: organism-based; conditions: in vivo, 336 h
Rattus norvegicus [20] = experiment: Sub-acute toxicity in Wistar rat assessed as creatinine level at 100 mg/kg, po administered daily for 14 days (reference value: 0.62 +/- 0.3 mg/dl); format: organism-based; conditions: in vivo, 336 h
Rattus norvegicus [21] = experiment: Sub-acute toxicity in Wistar rat assessed as uric acid level at 100 mg/kg, po administered daily for 14 days (reference value: 3.9 +/- 2.8 mg/dl); format: organism-based; conditions: in vivo, 336 h
Rattus norvegicus [22] = experiment: Sub-acute toxicity in Wistar rat assessed as calcium level at 100 mg/kg, po administered daily for 14 days (reference value: 10.5 +/- 1.5 mg/dl); format: organism-based; conditions: in vivo, 336 h
Rattus norvegicus [23] = experiment: Sub-acute toxicity in Wistar rat assessed as phosphorus level at 100 mg/kg, po administered daily for 14 days (reference value: 6.71 +/- 1 mg/dl); format: organism-based; conditions: in vivo, 336 h
Rattus norvegicus [24] = experiment: Sub-acute toxicity in Wistar rat assessed as Na+ level at 100 mg/kg, po administered daily for 14 days (reference value: 143.8 +/- 2.3 mEq/L); format: organism-based; conditions: in vivo, 336 h
Rattus norvegicus [25] = experiment: Sub-acute toxicity in Wistar rat assessed as K+ level at 100 mg/kg, po administered daily for 14 days (reference value: 4.79 +/- 0.45 mEq/L); format: organism-based; conditions: in vivo, 336 h
Rattus norvegicus [26] = experiment: Sub-acute toxicity in Wistar rat assessed as change in behavior at 100 mg/kg, po administered daily for 14 days; format: organism-based; conditions: in vivo, 336 h
Rattus norvegicus [27] = experiment: Sub-acute toxicity in Wistar rat assessed as mortality at 100 mg/kg, po administered daily for 14 days; format: organism-based; conditions: in vivo, 336 h
Rattus norvegicus [28] = experiment: Sub-acute toxicity in Wistar rat assessed as effect on water intake at 100 mg/kg, po administered daily for 14 days; format: organism-based; conditions: in vivo, 336 h
Homo sapiens [29] = species on record: Homo sapiens; experiment: Selectivity ratio of Ki for human recombinant carbonic anhydrase 2 to Ki for human recombinant carbonic anhydrase 7
Homo sapiens [30] = species on record: Homo sapiens; experiment: Selectivity ratio of Ki for human recombinant carbonic anhydrase 9 to Ki for human recombinant carbonic anhydrase 7
Mus musculus [31] = experiment: Anticonvulsant activity in Swiss albino mouse assessed as protection against maximal electroshock-induced seizures at 100 mg/kg, ip administered 3 hrs prior to 50 mA current induction relative to control
Mus musculus [32] = experiment: Anticonvulsant activity in Swiss albino mouse assessed as protection against maximal electroshock-induced seizures at 100 mg/kg, ip administered 0.5 hrs prior to 50 mA current induction relative to control

Chain of Carbonic anhydrase 1 (P00915 whole entry): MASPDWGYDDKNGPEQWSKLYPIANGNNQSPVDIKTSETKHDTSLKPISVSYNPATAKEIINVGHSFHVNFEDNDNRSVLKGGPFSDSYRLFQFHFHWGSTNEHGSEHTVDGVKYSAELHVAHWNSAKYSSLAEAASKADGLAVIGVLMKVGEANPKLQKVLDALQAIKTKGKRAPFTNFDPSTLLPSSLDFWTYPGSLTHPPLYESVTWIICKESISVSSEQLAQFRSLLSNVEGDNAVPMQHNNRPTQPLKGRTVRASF

Cc1ccc(N2CCN(c3ccc(/C=N/NC(=O)c4ccc(S(N)(=O)=O)cc4)cc3)CC2)c(C)c1
Ki (Carbonic anhydrase 1): > 10 µM | Ki (Carbonic anhydrase 2): 9.39 µM | Ki (Carbonic anhydrase 7): 0.0178 µM | Ki (Carbonic anhydrase 9): 1.66 µM | Activity (Mus musculus [1]): 67 - 70% | Activity (Rattus norvegicus [2]): 67 - 84% | Activity (Mus musculus [3]): 67% | Activity (Rattus norvegicus [4]): 17% | Activity (Rattus norvegicus [5]): 84% | Activity (Rattus norvegicus [6]): 67% | Activity (Rattus norvegicus [7]): 50% | Activity (Mus musculus [8]): 60% | Activity (Mus musculus [9]): 60% | Activity (Mus musculus [10]): 50% | Activity (Mus musculus [11]): 60% | Activity (Mus musculus [12]): Non-Toxic | Activity (Rattus norvegicus [13]): 71.5% | Activity (Rattus norvegicus [14]): 2% | Activity (Rattus norvegicus [15]): 0.33% | Activity (Rattus norvegicus [16]): 65 U/L | Activity (Rattus norvegicus [17]): 60.3 U/L | Activity (Rattus norvegicus [18]): 96.5 U/L | Activity (Rattus norvegicus [19]): 6.62 g/dL | Activity (Rattus norvegicus [20]): 0.75 mg/dL | Activity (Rattus norvegicus [21]): 4.33 mg/dL | Activity (Rattus norvegicus [22]): 10 mg/dL | Activity (Rattus norvegicus [23]): 6.48 mg/dL | Activity (Rattus norvegicus [24]): 142.5 mEq/L | Activity (Rattus norvegicus [25]): 4.83 mEq/L | Activity (Rattus norvegicus [26]): Non-Toxic | Activity (Rattus norvegicus [27]): Non-Toxic | Activity (Rattus norvegicus [28]): Non-Toxic | Ratio Ki (Homo sapiens [29]): 527 | Ratio Ki (Homo sapiens [30]): 93 | Activity (Mus musculus [31]): 50% | Activity (Mus musculus [32]): 50%
